Measured values: patent US20170038384A1, “TREATMENT OF TUMORS EXPRESSING MUTANT P53” (SLOAN-KETTERING INSTITUTE FOR CANCER RESEARCH, priority 2014, published 2017)

Experiments:
[1] = tested on: murine KPC pancreatic cancer cells; assay: MTS assay of KPC cell viability/proliferation; format: cell-based, mouse
Description: (§1) FIG. 5B is a graph of MTS assay (E490) of murine KPC and human A2.1 cells treated with crenolanib with various doses for 72 hours. Normalized values are expressed as means±SD form quadruple replicates.
Normalized values are expressed as means±SD form quadruple replicates.
(§2) All cell lines were maintained in DMEM+10% FBS, at 37° C. in 5% CO2. Stable cell lines expressing shRNAs were generated by retroviral mediated gene transfer. Briefly, Phoenix or Ampho packaging cells (for murine or human cell lines, respectively) were transfected by the calcium phosphate method with vectors expressing NF-YA, NF-YB, p53, p73, PDGFRa, PDGFRb or Renilla-control shRNAs, and the generated viruses were harvested to infect KPC, KPflC, or a series of human pancreatic, breast, lung and colon cancer cell lines. Infected cells were selected with puromycin and experiments were carried out on derived cell populations. To generate cells stably expressing mutant p53, p73 or PDGFRb, KPflC cells were infected with MSCV-p53-R175H, -R273H, PDGFRb or pcDNA3-HA-p73α and selected in puromycin and G418 respectively to yield stable pools.

[2] = tested on: human A2.1 pancreatic cancer cells; assay: MTS assay of A2.1 cell viability; format: cell-based
Description: as §1, §2

PDGFRb [3] = biological target: T1, PDGFRb (Mus musculus, UniProt P05622); assay: PDGFRb phosphorylation in KPC cells (immunoprecipitation, phospho-Tyrosine western blot); format: cell-based
T1 construct: endogenous in cells; host or cells: murine KPC pancreatic cancer cell line (Kras G12D, p53 R172H, Pdx1-Cre)
T1 sequence (P05622 32-1098): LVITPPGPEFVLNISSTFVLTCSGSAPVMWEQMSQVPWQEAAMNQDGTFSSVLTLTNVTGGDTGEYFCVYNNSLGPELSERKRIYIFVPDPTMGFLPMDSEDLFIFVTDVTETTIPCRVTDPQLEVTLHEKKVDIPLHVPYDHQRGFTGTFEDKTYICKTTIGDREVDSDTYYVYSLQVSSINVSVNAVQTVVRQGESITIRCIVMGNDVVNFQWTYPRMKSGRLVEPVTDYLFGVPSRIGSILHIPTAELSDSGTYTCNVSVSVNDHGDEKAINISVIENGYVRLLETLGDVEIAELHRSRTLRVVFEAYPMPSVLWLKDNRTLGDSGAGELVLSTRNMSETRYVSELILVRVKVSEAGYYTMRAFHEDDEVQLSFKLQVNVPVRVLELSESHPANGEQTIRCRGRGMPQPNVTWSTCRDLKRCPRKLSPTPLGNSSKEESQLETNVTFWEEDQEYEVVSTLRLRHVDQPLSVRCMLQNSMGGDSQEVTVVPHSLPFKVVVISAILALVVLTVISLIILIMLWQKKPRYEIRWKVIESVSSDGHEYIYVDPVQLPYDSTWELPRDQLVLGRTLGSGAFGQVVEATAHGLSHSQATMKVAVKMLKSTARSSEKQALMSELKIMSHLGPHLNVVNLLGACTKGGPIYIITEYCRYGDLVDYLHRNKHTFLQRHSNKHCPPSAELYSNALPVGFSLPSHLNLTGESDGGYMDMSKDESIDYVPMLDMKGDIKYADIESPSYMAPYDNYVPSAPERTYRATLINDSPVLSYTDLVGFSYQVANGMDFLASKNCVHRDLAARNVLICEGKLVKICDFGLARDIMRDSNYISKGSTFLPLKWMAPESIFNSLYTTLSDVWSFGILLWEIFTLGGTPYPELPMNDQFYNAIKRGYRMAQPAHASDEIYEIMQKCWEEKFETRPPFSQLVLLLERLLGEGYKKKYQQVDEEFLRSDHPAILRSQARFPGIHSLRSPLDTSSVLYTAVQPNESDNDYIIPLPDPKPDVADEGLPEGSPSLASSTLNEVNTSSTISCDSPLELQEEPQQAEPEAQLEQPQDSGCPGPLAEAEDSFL
Description: FIG. 5C depicts immunoprecipitation of PDGFRb from KPC cells starved for 12 hours, treated with either increasing doses of crenolanib or DMSO for 4 hours and subsequently stimulated with 50 ng/ml of PDGF-BB recombinant protein. Protein levels of PDGFRb, phospho-Tyrosine and Tubulin were determined by western blotting.
Protein levels of PDGFRb, phospho-Tyrosine and Tubulin were determined by western blotting.
FIG. 12E depicts immunoprecipitation of PDGFRb from KPC cells treated with DMSO or crenolanib (300 nM) for different time periods. The input protein levels for PDGFRb, phospho-Tyrosine, and Actin and those present in immunoprecipitates for phospho-Tyrosine were determined by western blotting.
To measure levels of endogenously phosphorylated PDGFRb, KPC cells were treated with the drug as described and harvested in phospho-lysis buffer (50 mM Tris pH 7.5, 1% Tween-20, 200 mM NaCl, 0.2% NP-40, phosphatase inhibitors [2.5 mM Sodium pyrophosphate, 1 mM β-Glycerophosphate, 1 mM Na3VO4], and protease inhibitors [Roche]).

PDGFRb [4] = biological target: T2, PDGFRb (Homo sapiens, UniProt P09619); assay: Western blotting for phospho-PDGFRb in A2.1 cells; format: cell-based; conditions: 0.3 μM
T2 construct: Western blotting for phospho-PDGFRb, PDGFRb, and Actin in human A2.1 cells; endogenous in cells; host or cells: human A2.1 pancreatic cancer cell line (mutant p53 155P)
T2 sequence (P09619 33-1106): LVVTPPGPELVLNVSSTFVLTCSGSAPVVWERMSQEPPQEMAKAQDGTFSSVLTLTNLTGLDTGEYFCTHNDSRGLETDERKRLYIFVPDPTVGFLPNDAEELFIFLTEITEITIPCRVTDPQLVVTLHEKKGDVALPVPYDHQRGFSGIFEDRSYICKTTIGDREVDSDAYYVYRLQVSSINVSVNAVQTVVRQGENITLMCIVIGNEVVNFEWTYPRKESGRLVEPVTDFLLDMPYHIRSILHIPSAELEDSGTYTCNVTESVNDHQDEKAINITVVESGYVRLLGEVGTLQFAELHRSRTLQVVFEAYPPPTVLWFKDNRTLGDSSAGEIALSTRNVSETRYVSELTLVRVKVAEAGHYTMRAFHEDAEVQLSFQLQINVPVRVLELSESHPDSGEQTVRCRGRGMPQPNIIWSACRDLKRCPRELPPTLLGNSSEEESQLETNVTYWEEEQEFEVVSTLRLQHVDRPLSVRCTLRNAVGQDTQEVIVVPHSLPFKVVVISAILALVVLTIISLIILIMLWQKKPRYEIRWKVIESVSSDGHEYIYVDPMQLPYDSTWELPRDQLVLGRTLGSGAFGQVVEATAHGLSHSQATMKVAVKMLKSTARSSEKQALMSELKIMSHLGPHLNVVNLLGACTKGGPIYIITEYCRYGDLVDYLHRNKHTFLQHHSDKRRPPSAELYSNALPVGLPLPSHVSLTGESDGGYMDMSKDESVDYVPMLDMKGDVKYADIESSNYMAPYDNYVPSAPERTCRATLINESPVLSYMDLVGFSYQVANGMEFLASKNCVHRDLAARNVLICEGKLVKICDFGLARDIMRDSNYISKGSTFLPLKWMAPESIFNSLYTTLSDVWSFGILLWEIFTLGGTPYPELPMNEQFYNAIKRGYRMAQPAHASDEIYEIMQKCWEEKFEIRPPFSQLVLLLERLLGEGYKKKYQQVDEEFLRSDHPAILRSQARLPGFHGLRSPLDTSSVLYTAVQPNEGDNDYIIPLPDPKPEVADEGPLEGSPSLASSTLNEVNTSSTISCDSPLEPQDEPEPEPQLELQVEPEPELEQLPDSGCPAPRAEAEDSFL
From the text: FIG. 12D depicts Western blotting for phospho-PDGFRb, PDGFRb, and Actin in human A2.1 cells after treatment with DMSO or crenolanib at varying doses.

A2.1 cells = assay: Three-dimensional collagen invasion assay, A2.1 cells; format: cell-based, human; conditions: 300 nM
Description: Images were analyzed using Imaris software.

KPC cells [5] = assay: Lung colonization assay after tail vein injection of drug-pretreated KPC cells; format: in vivo, mouse
From the text: FIG. 5E (left panel) are representative merged brightfield/GFP imaged of whole lung as well as H&E stains of representative sections of pulmonary lobes after tail vein injection of crenolanib- or DMSO-treated KPC cells into mice. FIG. 5E (right panel) is a graph of quantification of total number of lung metastatic nodules in individual mouse (at least six mice per each group). Data are represented as mean±SD.
FIG. 6B (left panel) are representative merged brightfield/GFP images of whole lung. FIG. 6B (middle panel) are H&E stainings of representative sections of pulmonary lobes. […] FIG. 6B (right panel) is a graph of quantification of total number of lung metastatic nodules in individual mouse (at least six mice per each group. Data are represented as mean±SD.
(§3) All animal experiments were performed in accordance with a protocol approved by the Memorial Sloan-Kettering Institutional Animal Care and Use Committee. For colonization studies, KPC cells (1×10^5) were resuspended in 200 μl PBS and injected intravenously into the tail vein of 8 week-old female athymic nude mice. Lungs were harvested 7 days post injection and analyzed for colonization by GFP positivity (Nikon SMZ1500) and histology.

KPflC cells = assay: Lung colonization assay after tail vein injection of drug-pretreated KPflC cells; format: in vivo, mouse; conditions: same concentration as for KPC cells
Description: FIG. 12G (left panel) depicts representative merged brightfield/GFP images of pulmonary lobes after tail vein injection of crenolanib- or DMSO-treated KPflC cells into mice. FIG. 12G (middle panel) depicts H&E stainings of representative sections of pulmonary lobes. FIG. 12G (right panel) is a graph of quantification of total number of lung metastatic nodules in individual mouse (at least six mice per each group). Data are represented as mean±SD.
as §3

KPC cells [6] = assay: Propidium Iodide staining of KPC cells treated overnight; format: cell-based, mouse; conditions: KPC cells pretreated overnight
KPC cells [7] = assay: Three-dimensional collagen invasion assay, KPC cells
Description: FIG. 5D (left panel) is a graph of quantification of invasion of murine KPC and human A2.1 treated with either DMSO or crenolanib at 300 nM. Values are means±SD of 9 replicates from one representative experiment.
In brief, 24-well transwell inserts (Greiner bio-one) were lined with collagen type 1 (BD Biosciences), and cells were seeded on the inverted inserts. The lower chambers were filled with medium containing 0.5% FBS and upper chambers containing the collagen matrix were filled with medium containing 20% FBS and the chemoattractant HGF.
Invasion assay inserts were fixed using 4% formaldehyde and stained using DAPI and Alexa568 phalloidin (Invitrogen) before confocal microscopy (Perkin Elmer Spinning Disk) was conducted. Images were analyzed using Imaris software.

KPC mice = assay: Treatment of KPC mice (PDAC mouse model): tumor, survival and metastasis; format: in vivo
From the text: FIG. 6D is a graph of quantification of the number of mice with metastatic disease at the time of death. Values are percentages of the total number of mice in each cohort. Colored columns represent mice with metastases (METS) and white columns represent disease-free (DF) animals.
FIG. 6E is a graph of quantification of the number of mice with lung, lymph nodes or liver metastatic disease at the time of death. Values are percentages of the total number of mice in each cohort. Colored columns represent mice with metastases (METS) and white columns represent disease-free (DF) animals.
Strains were maintained on mixed background. […] Organs and tumors were removed and fixed in 10% buffered formalin and tumor and metastatic burden was assessed by gross pathology and histology.

PDGFRb [8] = biological target: T1, PDGFRb; assay: phospho-PDGFRb in pancreatic tumors of treated KPC mice (immunofluorescence); format: in vivo; conditions: 50 mg/kg oral gavage twice daily
Description: DAPI, blue; CK8, red and p-PDGFRb, green. […] 15 images were analyzed per tumor (n=7). Tissues were fixed overnight in formalin, embedded in paraffin, and cut into 5-μm thick sections. Sections were subjected to hematoxylin and eosin staining, and immunohistochemical and immunofluorescent staining following standard protocols. The following primary antibodies were used: mouse anti-GFP (Cell Signaling), rabbit anti-p-PDGFR-β ([MUT]) (Santa Cruz Biotechnology) and rat anti-CK8 (DSHB). […] Images were acquired using a Zeiss Axio Imager D1 scope.

[9] = 50 mg/kg oral gavage twice daily

SMILES | toxicity ([1]; KPC cells, 0.3 μM) | IC50 ([1]; Mus musculus, Pancreatic cancer cell, murine KPC cells, MTS assay, 72 hours, read-out: IC50, inhibiting the viability) | toxicity ([2]; A2.1 cells, 0.3 μM) | IC50 ([2]; Pancreatic cancer cell, human A2.1 cells, MTS assay, 72 hours, read-out: IC50, inhibiting the viability) | inhibition of PDGFRb activity, as measured by phospho-PDGFRb (PDGFRb [3]; 0.3 μM) | time of drug treatment to strong target inhibition (PDGFRb [3]; time course, 300 nM) | inhibition of PDGFRb activity, as measured by phospho-PDGFRb (PDGFRb [4]) | invasion relative to cells treated with DMSO (A2.1 cells) | lung nodules compared to controls pre-treated with DMSO (KPC cells [5]; KPC cells pretreated overnight, injected intravenously) | metastatic potential in lung colonization assay (KPflC cells) | viability of the injected cell population (KPC cells [6]) | invasion relative to cells treated with DMSO (KPC cells [7]; 300 nM) | PDGFRb tyrosine phosphorylation (PDGFRb [3]; 3 uM) | potential to colonize the lungs of recipient athymic mice (KPC cells [5]; pre-treatment of KPC cells) | anti-metastatic effect across organs (liver, lymph nodes and lung) (KPC mice; [9]) | occurrence of metastasis (KPC mice; [9]) | overall survival (KPC mice; 50 mg/kg oral gavage twice daily from 8 weeks of age) | incidence of metastasis (KPC mice; 50 mg/kg oral gavage twice daily, GFP fluorescence and histopathology, 92% in vehicle-treated animals) | levels of phospho-PDGFRb in the tumor cells of primary tumors (PDGFRb [8]) | invasive potential in vitro (KPC cells [7]; 3 μM vs DMSO)
CC1(COc2ccc3c(c2)ncn3-c2ccc3cccc(N4CCC(N)CC4)c3n2)COC1 [crenolanib, Crenolanib] | no toxicity was observed | 13.1 µM | no toxicity was observed | 8.5 µM | Strong inhibition | ≤ 10 min | Strong inhibition | substantially reduced invasion | significantly fewer lung nodules | did not reduce the metastatic potential | no effect on the viability | substantially reduced invasion |  |  |  |  |  |  |  | 
Cc1ccc(NC(=O)c2ccc(CN3CCN(C)CC3)cc2)cc1Nc1nccc(-c2cccnc2)n1 [imatinib] |  |  |  |  |  |  |  |  |  |  |  |  | strongly reduced PDGFRb tyrosine phosphorylation | decreased their potential to colonize the lungs | anti-metastatic effect was observed | striking reduction in the occurrence of metastasis | no impact | 15% | reduced levels of phospho-PDGFRb | significantly reduced the invasive potential
